Molecular target: human recombinant H-PGDS (Homo sapiens, UniProt O60760)
Experiment: Slightly modified fluorescence intensity h-PGDS TBA enzyme assay (1:40,000 enzyme, 40 second reaction, 1/2 log dilutions, top concentration typically 10 μM)
Format: biochemical
Conditions: slightly modified assay: 1:40,000 human recombinant H-PGDS
Procedure, shortened: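 Enzyme pre-incubated 10 min at room temperature with inhibitor in 100 mM Trizma pH 8.0, 100 μM MgCl2, 0.1 mg/ml rabbit IgG, 2.5 mM glutathione, 0.5% DMSO; reaction started with 5.0 μM PGH2 and stopped with FeCl2/citric acid. Remaining PGH2 quantified as MDA–TBA fluorescence (ex 530/em 560 nm); IC50 from 4-parameter fit, 11 concentrations in duplicate.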

human recombinant H-PGDS, sequence (O60760 whole entry): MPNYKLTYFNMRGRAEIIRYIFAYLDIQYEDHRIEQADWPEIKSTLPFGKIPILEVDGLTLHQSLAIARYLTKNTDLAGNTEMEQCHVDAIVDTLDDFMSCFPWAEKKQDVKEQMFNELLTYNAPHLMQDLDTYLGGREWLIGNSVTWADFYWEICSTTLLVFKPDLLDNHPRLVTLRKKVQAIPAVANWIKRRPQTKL

Compound | IC50
O=C(N[C@H]1CC[C@H](C(=O)N2CCN(C3CC3)CC2)CC1)c1ccc(-c2cccc(F)c2)nc1 [Example 107, N-{trans-4-[(4-Cyclopropylpiperazin-1-yl)carbonyl]cyclohexyl}-6-(3-fluorophenyl)nicotinamide] | 31.1 nM
O=C(N[C@H]1CC[C@@H](C(=O)O)C1)c1ccc(-c2cccc(F)c2)nc1 [Example 11b, (1R,3S)-3-({[6-(3-Fluorophenyl)pyridin-3-yl]carbonyl}amino)cyclopentanecarboxylic acid] | 13.7 nM
CN(C)C[C@H]1CC[C@@H](NC(=O)c2ccc(-c3cccc(F)c3)nc2)CC1 [Example 67, N-{cis-4-[(Dimethylamino)methyl]cyclohexyl}-6-(3-fluorophenyl)nicotinamide] | 118 nM
CCN(CC)C(=O)[C@@H]1CCC[C@H](NC(=O)c2ccc(-c3cccc(F)c3)nc2)C1 (relative stereo) [Example 40, N-[cis-3-(Diethylcarbamoyl)cyclohexyl]-6-(3-fluorophenyl)nicotinamide] | 9 nM
CCN1CCC(NC(=O)[C@@H]2CCC[C@H](NC(=O)c3ccc(-c4cccc(F)c4)nc3)C2)CC1 (relative stereo) [Example 64M, N-{cis-3-[(1-ethylpiperidin-4-yl)carbamoyl]cyclohexyl}-6-(3-fluorophenyl)nicotinamide] | 509 nM
CN1CCN(C2CCC(NC(=O)c3ccc(-c4cccc(F)c4)nc3)CC2)CC1 (single isomer, unassigned) [Example 51, 6-(3-Fluorophenyl)-N-[-4-(4-methylpiperazin-1-yl)cyclohexyl]nicotinamide] | 172 nM
O=C(NC1CCC(N2CCOCC2)CC1)c1ccc(-c2cccc(F)c2)nc1 (single isomer, unassigned) [Example 49, 6-(3-Fluorophenyl)-N-(4-morpholin-4-ylcyclohexyl)nicotinamide] | 69.2 nM
O=C(N[C@H]1CCC[C@H]1C(=O)O)c1ccc(-c2cccc(F)c2)nc1 [Example 8] | 1720 nM
CCN(C)C(=O)[C@H]1CC[C@@H](NC(=O)c2ccc(-c3cccc(F)c3)nc2)CC1 [Example 77, N-{cis-4-[Ethyl(methyl)carbamoyl]cyclohexyl}-6-(3-fluorophenyl)nicotinamide] | 6.42 nM
O=C(N[C@H]1CC[C@@H](CN2CCOCC2)CC1)c1ccc(-c2cccc(F)c2)nc1 [Example 80, 6-(3-Fluorophenyl)-N-[cis-4-(morpholin-4-ylmethyl)cyclohexyl]nicotinamide] | 16.6 nM
N[C@H]1CCN(C(=O)[C@H]2CC[C@H](NC(=O)c3ccc(-c4cccc(F)c4)nc3)CC2)C1 [Example 98, N-(trans-4-{[(3S)-3-Aminopyrrolidin-1-yl]carbonyl}cyclohexyl)-6-(3-fluorophenyl)nicotinamide] | 21.6 nM
O=C(N[C@@H]1CC[C@H](C(=O)N2CCC(O)CC2)C1)c1ccc(-c2cccc(F)c2)nc1 [Example 14, 6-(3-Fluorophenyl)-N-{(1R,3S)-3-[(4-hydroxypiperidin-1-yl)carbonyl]cyclopentyl}nicotinamide] | 7.48 nM
CC(C)(O)[C@H]1CC[C@H](NC(=O)c2ccc(-c3cccc(F)c3)nc2)CC1 [Example 97, 6-(3-Fluorophenyl)-N-[trans-4-(1-hydroxy-1-methylethyl)cyclohexyl]nicotinamide] | 2.9 nM
COCCNC1CCC(NC(=O)c2ccc(-c3cccc(F)c3)nc2)CC1 (single isomer, unassigned) [Example 54, 6-(3-Fluorophenyl)-N-{4-[(2-methoxyethyl)amino]cyclohexyl}nicotinamide] | 87.2 nM
COCCN(C)C1CCC(NC(=O)c2ccc(-c3cccc(F)c3)nc2)CC1 (single isomer, unassigned) [Example 58, 6-(3-Fluorophenyl)-N-{4-[(2-methoxyethyl)(methyl)amino]cyclohexyl}nicotinamide] | 307 nM
O=C(N[C@H]1CCC[C@@H](C(=O)NCCN2CCCCC2)C1)c1ccc(-c2cccc(F)c2)nc1 (relative stereo) [Example 64I, 6-(3-fluorophenyl)-N-{cis-3-[(2-piperidin-1-ylethyl)carbamoyl]cyclohexyl}nicotinamide] | 11.1 nM
O=C(N[C@H]1CC[C@H](C(=O)O)CC1)c1ccc(-c2cccc(F)c2)nc1 [Example 84, trans-4-({[6-(3-fluorophenyl)pyridin-3yl]carbonyl}amino)cyclohexanecarboxylic acid] | 39.8 nM
CN(Cc1ccccc1)C(=O)[C@@H]1CCC[C@H](NC(=O)c2ccc(-c3cccc(F)c3)nc2)C1 (relative stereo) [Example 39, N-{cis-3-[Benzyl(methyl)carbamoyl]cyclohexyl}-6-(3-fluorophenyl)nicotinamide] | 4.26 nM
C[C@H]1CNCCN1C(=O)[C@H]1CC[C@H](NC(=O)c2ccc(-c3cccc(F)c3)nc2)CC1 [Example 109, 6-(3-Fluorophenyl)-N-(trans-4-{[(2S)-2-methylpiperazin-1-yl]carbonyl}cyclohexyl)nicotinamide] | 16.7 nM
Cc1nccn1C[C@H]1CC[C@@H](NC(=O)c2ccc(-c3cccc(F)c3)nc2)CC1 [Example 79, 6-(3-Fluorophenyl)-N-{cis-4-[(2-methyl-1H-imidazol-1-yl)methyl]cyclohexyl}nicotinamide] | 15.9 nM
O=C(N[C@H]1CC[C@H](C(=O)N2CCCC2)CC1)c1ccc(-c2cccc(F)c2)nc1 [Example 87, 6-(3-Fluorophenyl)-N-[trans-4-(pyrrolidin-1-ylcarbonyl)cyclohexyl]nicotinamide] | 2.07 nM
O=C(N[C@H]1CC[C@@H](C(=O)N2CCC(O)CC2)CC1)c1ccc(-c2cccc(F)c2)nc1 [Example 68, 6-(3-Fluorophenyl)-N-{cis-4-[(4-hydroxypiperidin-1-yl)carbonyl]cyclohexyl}nicotinamide] | 13.2 nM
CN1CCN(C[C@H]2CC[C@H](NC(=O)c3ccc(-c4cccc(F)c4)nc3)CC2)CC1 [Example 111, 6-(3-Fluorophenyl)-N-{trans-4-[(4-methylpiperazin-1-yl)methyl]cyclohexyl}nicotinamide] | 23 nM
O=C(N[C@H]1CCC[C@@H](C(=O)NCc2ccccc2)C1)c1ccc(-c2cccc(F)c2)nc1 (relative stereo) [Example 30, N-[cis-3-(Benzylcarbamoyl)cyclohexyl]-6-(3-fluorophenyl)nicotinamide] | 25.6 nM

Second part, the compound after the results:

IC50 | Compound
9.3 nM | O=C(N[C@H]1CCC[C@@H](C(=O)NCCCO)C1)c1ccc(-c2cccc(F)c2)nc1 (relative stereo) [Example 64E, 6-(3-fluorophenyl)-N-{cis-3-[(3-hydroxypropyl)carbamoyl]cyclohexyl}nicotinamide]
23 nM | O=C(NC1CCC(n2ccnc2)CC1)c1ccc(-c2cccc(F)c2)nc1 (centres unmarked) [Example 47, 6-(3-Fluorophenyl)-N-[4-(1H-imidazol-1-yl)cyclohexyl]nicotinamide]
14.2 nM | O=C(N[C@@H]1CCC[C@H](C(=O)O)C1)c1ccc(-c2cccc(F)c2)nc1 (relative stereo) [Example 27, cis-3-({[6-(3-Fluorophenyl)pyridin-3-yl]carbonyl}amino)cyclohexanecarboxylic acid]
292 nM | CN(C)C[C@H]1C[C@@H](NC(=O)c2ccc(-c3cccc(F)c3)nc2)C1 [Example 7]
15.8 nM | C[C@H]1CN(C(=O)[C@H]2CC[C@H](NC(=O)c3ccc(-c4cccc(F)c4)nc3)CC2)CCN1 [Example 101, 6-(3-Fluorophenyl)-N-(trans-4-{[(3S)-3-methylpiperazin-1-yl]carbonyl}cyclohexyl)nicotinamide]
39.1 nM | CN1CCN(C2CCC(NC(=O)c3ccc(-c4cccc(F)c4)nc3)CC2)CC1 (single isomer, unassigned) [Example 52, 6-(3-Fluorophenyl)-N-[-4-(4-methylpiperazin-1-yl)cyclohexyl]nicotinamide]
8.3 nM | COCCNC(=O)[C@@H]1CCC[C@H](NC(=O)c2ccc(-c3cccc(F)c3)nc2)C1 [Example 64A, 6-(3-fluorophenyl)-N-{(1S,3R)-3-[(2-methoxyethyl)carbamoyl]cyclohexyl}nicotinamide]
8.32 nM | CC(C)NC(=O)[C@@H]1CCC[C@H](NC(=O)c2ccc(-c3cccc(F)c3)nc2)C1 (relative stereo) [Example 34, 6-(3-Fluorophenyl)-N-[cis-3-(isopropylcarbamoyl)cyclohexyl]nicotinamide]
23.7 nM | CCN1CCN(C(=O)[C@H]2CC[C@H](NC(=O)c3ccc(-c4cccc(F)c4)nc3)CC2)CC1 [Example 96, N-{trans-4-[(4-Ethylpiperazin-1-yl)carbonyl]cyclohexyl}-6-(3-fluorophenyl)nicotinamide]
8.74 nM | C[C@]1(O)CC[C@H](NC(=O)c2ccc(-c3cccc(F)c3)nc2)CC1 [Example 115, 6-(3-Fluorophenyl)-N-(trans-4-hydroxy-4-methylcyclohexyl)nicotinamide]
1.43 nM | O=C(N[C@H]1CC[C@H](CO)CC1)c1ccc(-c2cccc(F)c2)nc1 [Example 103, 6-(3-Fluorophenyl)-N-[trans-4-(hydroxymethyl)cyclohexyl]nicotinamide]
14.7 nM | N-{cis-3-[(3-aminocyclohexyl)carbamoyl]cyclohexyl}-6-(3-fluorophenyl)nicotinamide N-{trans-3-[(3-aminocyclohexyl)carbamoyl]cyclohexyl}-6-(3-fluorophenyl)nicotinamide [Example 64D]
29.1 nM | N[C@H]1CCN(C(=O)[C@H]2CC[C@@H](NC(=O)c3ccc(-c4cccc(F)c4)nc3)C2)C1 [Example 16, N-[(1R,3S)-3-{[(3S)-3-Aminopyrrolidin-1-yl]carbonyl}cyclopentyl]-6-(3-fluorophenyl)nicotinamide]
255 nM | N[C@H]1CCCC[C@H]1NC(=O)[C@@H]1CCC[C@H](NC(=O)c2ccc(-c3cccc(F)c3)nc2)C1 (mixture of isomers) [Example 64L, N-[(1S,3R)-3-{[cis-2-aminocyclohexyl]carbamoyl}cyclohexyl]-6-(3-fluorophenyl)nicotinamide]

Reference: patent US20100173888A1 (Pfizer Inc, priority 2008, published 2010)
